# Test system: K98450-129-R-PDC complex spheroid growth, percent test/control
# Assay: Anticancer human tumor K98450-129-R-PDC patient-derived colon adenocarcinoma cell line growth inhibition [RAS]
# Details: for IC50: curve of first compound; for viability, T/C: stronger effect = lower value
# In short: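 Tumour cells grown as complex spheroids with HUVEC endothelial cells and mesenchymal stem cells, treated with RAS pathway inhibitor combinations. Each agent spans half-log steps from near clinical Cmax, or 10 microM where Cmax is unknown.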
# [1] = second compound 0.0316 µM, first compound 0.0316 µM
# [2] = second compound 0.0316 µM, first compound 0.1 µM
# [3] = second compound 0.0316 µM, first compound 0.316 µM
# [4] = second compound 0.0316 µM, first compound 1 µM
# [5] = second compound 0.1 µM, first compound 0.0316 µM
# [6] = second compound 0.1 µM, first compound 0.1 µM
# [7] = second compound 0.1 µM, first compound 0.316 µM
# [8] = second compound 0.1 µM, first compound 1 µM
# [9] = second compound 0.316 µM, first compound 0.0316 µM
# [10] = second compound 0.316 µM, first compound 0.1 µM
# [11] = second compound 0.316 µM, first compound 0.316 µM
# [12] = second compound 0.316 µM, first compound 1 µM
# [13] = second compound 1 µM, first compound 0.0316 µM
# [14] = second compound 1 µM, first compound 0.1 µM
# [15] = second compound 1 µM, first compound 0.316 µM
# [16] = second compound 1 µM, first compound 1 µM
# [17] = second compound 3.16 µM, first compound 0.0316 µM
# [18] = second compound 3.16 µM, first compound 0.1 µM
# [19] = second compound 3.16 µM, first compound 0.316 µM
# [20] = second compound 3.16 µM, first compound 1 µM
# [21] = second compound 10 µM, first compound 0.0316 µM
# [22] = second compound 10 µM, first compound 0.1 µM
# [23] = second compound 10 µM, first compound 0.316 µM
# [24] = second compound 10 µM, first compound 1 µM
# [25] = second compound 0.0316 µM, first compound 0.000949 µM
# [26] = second compound 0.0316 µM, first compound 0.003 µM
# [27] = second compound 0.0316 µM, first compound 0.00949 µM
# [28] = second compound 0.0316 µM, first compound 0.03 µM
# [29] = second compound 0.0316 µM, first compound 0.0949 µM
# [30] = second compound 0.0316 µM, first compound 0.3 µM
# [31] = second compound 0.1 µM, first compound 0.000949 µM
# [32] = second compound 0.1 µM, first compound 0.003 µM
# [33] = second compound 0.1 µM, first compound 0.00949 µM
# [34] = second compound 0.1 µM, first compound 0.03 µM
# [35] = second compound 0.1 µM, first compound 0.0949 µM
# [36] = second compound 0.1 µM, first compound 0.3 µM
# [37] = second compound 0.316 µM, first compound 0.000949 µM
# [38] = second compound 0.316 µM, first compound 0.003 µM
# [39] = second compound 0.316 µM, first compound 0.00949 µM
# [40] = second compound 0.316 µM, first compound 0.03 µM
# [41] = second compound 0.316 µM, first compound 0.0949 µM
# [42] = second compound 0.316 µM, first compound 0.3 µM
# [43] = second compound 1 µM, first compound 0.000949 µM
# [44] = second compound 1 µM, first compound 0.003 µM
# [45] = second compound 1 µM, first compound 0.00949 µM
# [46] = second compound 1 µM, first compound 0.03 µM
# [47] = second compound 1 µM, first compound 0.0949 µM
# [48] = second compound 1 µM, first compound 0.3 µM
# [49] = second compound 3.16 µM, first compound 0.000949 µM
# [50] = second compound 3.16 µM, first compound 0.003 µM
# [51] = second compound 3.16 µM, first compound 0.00949 µM
# [52] = second compound 3.16 µM, first compound 0.03 µM
# [53] = second compound 3.16 µM, first compound 0.0949 µM
# [54] = second compound 3.16 µM, first compound 0.3 µM
# [55] = second compound 10 µM, first compound 0.000949 µM
# [56] = second compound 10 µM, first compound 0.003 µM
# [57] = second compound 10 µM, first compound 0.00949 µM
# [58] = second compound 10 µM, first compound 0.03 µM
# [59] = second compound 10 µM, first compound 0.0949 µM
# [60] = second compound 10 µM, first compound 0.3 µM
# 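Further: spheroids exposed to agents for seven days before the viability readout.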
# 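Wherever viability, T/C is given: luminescence used as a proxy for viable cell amount.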
structure (smiles),measurement,setting,value
C=CC(=O)N1CCN(c2nc(OCC3CCCN3C)nc3c(F)c(-c4nc(N)cc(C)c4C(F)(F)F)c(Cl)cc23)C(C)C1 (stereo not drawn) + C#Cc1c(F)ccc2cc(O)cc(-c3ncc4c(N5CC6CCC(C5)N6)nc(OCC56CCCN5CC(F)C6)nc4c3F)c12,IC50,second compound 0.0316 µM,164 nM
same,IC50,second compound 0.1 µM,143 nM
same,IC50,second compound 0.316 µM,137 nM
same,IC50,second compound 1 µM,93.2 nM
same,IC50,second compound 3.16 µM,111 nM
same,IC50,second compound 10 µM,134 nM
same,"viability, T/C","second compound 0.0316 µM, first compound 0.00316 µM",94.9%
same,"viability, T/C","second compound 0.0316 µM, first compound 0.01 µM",81.4%
same,"viability, T/C",[1],68.7%
same,"viability, T/C",[2],55%
same,"viability, T/C",[3],43.6%
same,"viability, T/C",[4],30.8%
same,"viability, T/C","second compound 0.1 µM, first compound 0.00316 µM",95.4%
same,"viability, T/C","second compound 0.1 µM, first compound 0.01 µM",81.3%
same,"viability, T/C",[5],68.7%
same,"viability, T/C",[6],54.3%
same,"viability, T/C",[7],40.5%
same,"viability, T/C",[8],31.4%
same,"viability, T/C","second compound 0.316 µM, first compound 0.00316 µM",97.7%
same,"viability, T/C","second compound 0.316 µM, first compound 0.01 µM",86.4%
same,"viability, T/C",[9],70.9%
same,"viability, T/C",[10],58.8%
same,"viability, T/C",[11],33.9%
same,"viability, T/C",[12],32.6%
same,"viability, T/C","second compound 1 µM, first compound 0.00316 µM",93.4%
same,"viability, T/C","second compound 1 µM, first compound 0.01 µM",88.7%
same,"viability, T/C",[13],67%
same,"viability, T/C",[14],50.2%
same,"viability, T/C",[15],37.2%
same,"viability, T/C",[16],33.7%
same,"viability, T/C","second compound 3.16 µM, first compound 0.00316 µM",94.3%
same,"viability, T/C","second compound 3.16 µM, first compound 0.01 µM",80.4%
same,"viability, T/C",[17],69.7%
same,"viability, T/C",[18],52%
same,"viability, T/C",[19],34.7%
same,"viability, T/C",[20],26.1%
same,"viability, T/C","second compound 10 µM, first compound 0.00316 µM",82.9%
same,"viability, T/C","second compound 10 µM, first compound 0.01 µM",78.4%
same,"viability, T/C",[21],68.8%
same,"viability, T/C",[22],53.1%
same,"viability, T/C",[23],38.9%
same,"viability, T/C",[24],24.6%
CC(=O)OC12COC1CC(O)C1(C)C(=O)C(O)C3=C(C)C(OC(=O)C(O)C(NC(=O)OC(C)(C)C)c4ccccc4)CC(O)(C(OC(=O)c4ccccc4)C21)C3(C)C (stereo not drawn) + C#Cc1c(F)ccc2cc(O)cc(-c3ncc4c(N5CC6CCC(C5)N6)nc(OCC56CCCN5CC(F)C6)nc4c3F)c12,IC50,second compound 0.0316 µM,415 nM
same,IC50,second compound 0.1 µM,428 nM
same,IC50,second compound 0.316 µM,482 nM
same,IC50,second compound 1 µM,466 nM
same,IC50,second compound 3.16 µM,460 nM
same,IC50,second compound 10 µM,401 nM
same,"viability, T/C",[1],105%
same,"viability, T/C",[2],98%
same,"viability, T/C",[3],54.7%
same,"viability, T/C",[4],34.7%
same,"viability, T/C","second compound 0.0316 µM, first compound 3.16 µM",33.1%
same,"viability, T/C","second compound 0.0316 µM, first compound 10 µM",35.2%
same,"viability, T/C",[5],109%
same,"viability, T/C",[6],103%
same,"viability, T/C",[7],54.7%
same,"viability, T/C",[8],38%
same,"viability, T/C","second compound 0.1 µM, first compound 3.16 µM",32.8%
same,"viability, T/C","second compound 0.1 µM, first compound 10 µM",34.8%
same,"viability, T/C",[9],105%
same,"viability, T/C",[10],103%
same,"viability, T/C",[11],59%
same,"viability, T/C",[12],35.5%
same,"viability, T/C","second compound 0.316 µM, first compound 3.16 µM",32.4%
same,"viability, T/C","second compound 0.316 µM, first compound 10 µM",33.4%
same,"viability, T/C",[13],101%
same,"viability, T/C",[14],101%
same,"viability, T/C",[15],57.9%
same,"viability, T/C",[16],36.6%
same,"viability, T/C","second compound 1 µM, first compound 3.16 µM",32.6%
same,"viability, T/C","second compound 1 µM, first compound 10 µM",32.1%
same,"viability, T/C",[17],93.2%
same,"viability, T/C",[18],97.1%
same,"viability, T/C",[19],57.9%
same,"viability, T/C",[20],35%
same,"viability, T/C","second compound 3.16 µM, first compound 3.16 µM",34.2%
same,"viability, T/C","second compound 3.16 µM, first compound 10 µM",31.9%
same,"viability, T/C",[21],86.1%
same,"viability, T/C",[22],87.8%
same,"viability, T/C",[23],55%
same,"viability, T/C",[24],31.9%
same,"viability, T/C","second compound 10 µM, first compound 3.16 µM",30.6%
same,"viability, T/C","second compound 10 µM, first compound 10 µM",29%
CC1(C)CCC(Nc2ncc(C(F)(F)F)c(-c3c[nH]c4c(P(C)(C)=O)c(C#N)ccc34)n2)CN1 (stereo not drawn) + C#Cc1c(F)ccc2cc(O)cc(-c3ncc4c(N5CC6CCC(C5)N6)nc(OCC56CCCN5CC(F)C6)nc4c3F)c12,IC50,second compound 0.0316 µM,> 300 nM
same,IC50,second compound 0.1 µM,> 300 nM
same,IC50,second compound 0.316 µM,> 300 nM
same,IC50,second compound 1 µM,> 300 nM
same,IC50,second compound 3.16 µM,> 300 nM
same,IC50,second compound 10 µM,> 300 nM
same,"viability, T/C",[25],102%
same,"viability, T/C",[26],103%
same,"viability, T/C",[27],100%
same,"viability, T/C",[28],105%
same,"viability, T/C",[29],88.5%
same,"viability, T/C",[30],58.6%
same,"viability, T/C",[31],107%
same,"viability, T/C",[32],105%
same,"viability, T/C",[33],111%
same,"viability, T/C",[34],100%
same,"viability, T/C",[35],89.3%
same,"viability, T/C",[36],66.6%
same,"viability, T/C",[37],111%
same,"viability, T/C",[38],105%
same,"viability, T/C",[39],99.8%
same,"viability, T/C",[40],100%
same,"viability, T/C",[41],89.9%
same,"viability, T/C",[42],69.7%
same,"viability, T/C",[43],102%
same,"viability, T/C",[44],97.8%
same,"viability, T/C",[45],99.3%
same,"viability, T/C",[46],105%
same,"viability, T/C",[47],89.2%
same,"viability, T/C",[48],64%
same,"viability, T/C",[49],96.1%
same,"viability, T/C",[50],95.3%
same,"viability, T/C",[51],95.1%
same,"viability, T/C",[52],97.7%
same,"viability, T/C",[53],94.2%
same,"viability, T/C",[54],66.7%
same,"viability, T/C",[55],89%
same,"viability, T/C",[56],94.2%
same,"viability, T/C",[57],91.4%
same,"viability, T/C",[58],98.4%
same,"viability, T/C",[59],85.9%
same,"viability, T/C",[60],61.9%
CCc1c2c(nc3ccc(O)cc13)-c1cc3c(c(=O)n1C2)COC(=O)[C@]3(O)CC + C#Cc1c(F)ccc2cc(O)cc(-c3ncc4c(N5CC6CCC(C5)N6)nc(OCC56CCCN5CC(F)C6)nc4c3F)c12,IC50,second compound 0.0316 µM,36.4 nM
same,IC50,second compound 0.1 µM,44.1 nM
same,IC50,second compound 0.316 µM,47.9 nM
same,IC50,second compound 1 µM,46.9 nM
same,IC50,second compound 3.16 µM,43.3 nM
same,IC50,second compound 10 µM,32.8 nM
same,"viability, T/C",[25],103%
same,"viability, T/C",[26],102%
same,"viability, T/C",[27],75.7%
same,"viability, T/C",[28],52.2%
same,"viability, T/C",[29],43.3%
same,"viability, T/C",[30],33.5%
same,"viability, T/C",[31],109%
same,"viability, T/C",[32],101%
same,"viability, T/C",[33],80.5%
same,"viability, T/C",[34],52.5%
same,"viability, T/C",[35],44.4%
same,"viability, T/C",[36],33%
same,"viability, T/C",[37],108%
same,"viability, T/C",[38],101%
same,"viability, T/C",[39],84.5%
same,"viability, T/C",[40],54.4%
same,"viability, T/C",[41],43.6%
same,"viability, T/C",[42],34%
same,"viability, T/C",[43],109%
same,"viability, T/C",[44],100%
same,"viability, T/C",[45],86.8%
same,"viability, T/C",[46],54%
same,"viability, T/C",[47],42.9%
same,"viability, T/C",[48],36.9%
same,"viability, T/C",[49],95.7%
same,"viability, T/C",[50],89.3%
same,"viability, T/C",[51],78.1%
same,"viability, T/C",[52],51.9%
same,"viability, T/C",[53],43.6%
same,"viability, T/C",[54],33.1%
same,"viability, T/C",[55],87.2%
same,"viability, T/C",[56],84.3%
same,"viability, T/C",[57],75.5%
same,"viability, T/C",[58],50.9%
same,"viability, T/C",[59],37.2%
same,"viability, T/C",[60],33.8%

# Reference: PubChem BioAssay AID2060891 (Molecular Pharmacology Branch, DTP, NCI, 2025)
